From US20250011330A1, “Imidazo[1,2- a]pyrazine and Imidazo[1,2- a]pyridine Based Tyrosyl-DNA Phosphodiesterase I (TDP1) Inhibitors” (The USA, As Represented by the Secretary, Department of …, priority 2021, published 2025)
Read-outs that look alike come from different tables or passages of the source.

Tests used:
TDP2 [1] = molecular target: T1, TDP2 (Homo sapiens (Human), UniProt O95551); experiment: gel-based TDP2 fluorescence assay in vitro; format: biochemical; details: read-out: TDP2 IC50
TDP1 [2] = molecular target: T2, TDP1 (Homo sapiens (Human), UniProt Q9NUW8); experiment: Degradation assay (western blotting) of TDP1 in HCT116 and HEK293 cells; format: cell-based; details: list in description
Method: The degradation effect of the TDP1 inhibitors on TDP1 in human colon cancer cell line HCT116 and embryonic kidney cell line HEK293 were studied. Cells were first seeded in a 6-well plate until 60-80% confluency and then incubated with a serial dilution of TDP1 inhibitors at the range of 25-200 μM for 24-72 h at 37° C. […] Samples were then sonicated at 30% for 10 s and centrifuged for 15 min at 15000 rpm at 4 Celsius. Supernatant were collected and the concentration of total protein were measured by BCA Protein Assay Kit according to its protocols. Four micrograms of total protein for each sample were loaded and TDP1 level were conducted by western blotting.

TDP1 [3] = molecular target: T2, TDP1; experiment: TDP1 gel-based in vitro fluorescence assay; format: biochemical
TDP2 [4] = molecular target: T1, TDP2; experiment: TDP2 degrading activity as stated in the description; details: list in description
TOP1 = TOP1 (Homo sapiens (Human), UniProt P11387); experiment: Degradation of TOP1 in cells (western blotting); format: cell-based; details: list in description
[5] = test system: human colon cancer cell line HCT116; experiment: Synergistic effect with camptothecin (CPT) based on cell viability; details: for synergy with camptothecin: list in description; for Synergy Score: with camptothecin (CPT), HCT116, 72 h, SynergyFinder 2.0
Method: The synergistic effects of the TDP1 inhibitors with CPT were tested in human colon cancer cell line HCT116 based on cell viability (Table 3, FIGS. 2-5). Cells were first seeded in a 384-well black-clear plate until 30% confluency and then incubated with a serial dilution of CPT at the range of 0-100 nM in the present or the absence of TDP1 inhibitors for 72 h at 37° C. Viable cell numbers were counted from the brightfield images taken by Biotek Cytation 5 (FIGS. 2-3). Fractional affect (Fa) and combination index (Ci) were analyzed with CompuSyn software. Synergistic scores of each TDP1 inhibitors were calculated and collected based on the data analysis from SynergyFinder (FIG. 4). […]

[6] = molecular target: whole cell extract (WCE) human TDP1 (Homo sapiens (Human), UniProt Q9NUW8); experiment: gel based whole cell extract (WCE) human TDP1 fluorescence assay; format: biochemical; details: read-out: WCE hTDP1 IC50
TDP1 [7] = molecular target: T2, TDP1; experiment: Lineweaver-Burk plot analysis of TDP1 inhibition; format: biochemical
Method: Samples were then analyzed with a 20% DNA sequencing gel and exposed to a PhosphorImager screen for further analysis by Typhoon FLA 9500 (GE Healthcare). The Linearweaver-Burk plots (FIG. 1) were generated based on the substrate concentrations and corresponding reaction velocities.

[8] = Table 8, lead compounds with different linkers
[9] = Table 8, lead compounds with different linkers, read-out: TDP1 IC50
[10] = Table 8, ratio of IC50 TDP2 to TDP1
[11] = Table 3, gel based TDP1 fluorescence assay, read-out: TDP1 IC50
[12] = Table 3, values in brackets (footnote vi), read-out: TDP1 IC50 (μM), separated data from previous experiments

T1 sequence (O95551 whole entry, species assumed): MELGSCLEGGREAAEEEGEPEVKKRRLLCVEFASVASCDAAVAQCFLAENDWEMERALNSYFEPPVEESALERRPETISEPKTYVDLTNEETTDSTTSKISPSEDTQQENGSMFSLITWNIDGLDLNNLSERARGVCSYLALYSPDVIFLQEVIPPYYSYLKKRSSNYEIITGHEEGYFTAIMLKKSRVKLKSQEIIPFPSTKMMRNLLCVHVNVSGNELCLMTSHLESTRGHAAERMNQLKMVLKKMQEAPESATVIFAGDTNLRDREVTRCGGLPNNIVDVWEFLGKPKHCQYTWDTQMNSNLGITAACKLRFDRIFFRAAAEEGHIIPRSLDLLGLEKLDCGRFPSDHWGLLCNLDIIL
T2 sequence (Q9NUW8 whole entry): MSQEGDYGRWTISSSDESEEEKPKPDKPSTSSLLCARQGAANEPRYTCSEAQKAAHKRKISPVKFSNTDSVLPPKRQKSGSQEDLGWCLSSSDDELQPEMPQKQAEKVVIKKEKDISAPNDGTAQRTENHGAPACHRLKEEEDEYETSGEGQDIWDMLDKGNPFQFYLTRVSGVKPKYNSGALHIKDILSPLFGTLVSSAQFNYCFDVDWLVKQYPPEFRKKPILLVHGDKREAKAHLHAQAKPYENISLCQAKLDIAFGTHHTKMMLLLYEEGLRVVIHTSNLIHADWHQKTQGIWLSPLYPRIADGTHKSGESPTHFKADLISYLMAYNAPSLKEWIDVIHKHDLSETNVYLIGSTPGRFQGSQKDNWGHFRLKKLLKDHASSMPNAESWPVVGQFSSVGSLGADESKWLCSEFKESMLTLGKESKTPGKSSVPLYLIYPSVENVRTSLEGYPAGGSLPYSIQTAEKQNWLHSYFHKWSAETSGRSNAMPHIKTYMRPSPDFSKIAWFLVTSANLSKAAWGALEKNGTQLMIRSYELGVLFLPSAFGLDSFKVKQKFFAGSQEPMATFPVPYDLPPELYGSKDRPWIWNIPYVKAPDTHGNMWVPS
Sequence of whole cell extract (WCE) human TDP1 (Q9NUW8 whole entry): as above

| Structure (SMILES) | IC50 (TDP2 [1]; [8]) [µM] | TDP1 degrading activity (TDP1 [2]) | IC50 (TDP1 [3]; [9]) [µM] | FC (fold change) (TDP1 [3]; [10]) | TDP2 degrading activity (TDP2 [4]) | TOP1 degrading activity (TOP1) | synergy with camptothecin [5] | IC50 (TDP2 [1]; Table 3) [µM] | IC50 (TDP1 [3]; [11]) [µM] | IC50 (TDP1 [3]; [12]) [µM] | Synergy Score [5] | also measured |
| --- | --- | --- | --- | --- | --- | --- | --- | --- | --- | --- | --- | --- |
| N#Cc1ccc(-c2ccc(Cn3cc(COc4ccc(-c5nc6cc(-c7ccccc7)ccn6c5Nc5ccc(C(=O)O)cc5)cc4)nn3)cc2)nc1 [XZ720, 4-((2-(4-((1-(4-(5-Cyanopyridin-2-yl)benzyl)-1H-1,2,3-triazol-4-yl)methoxy)phenyl)-7-phenylimidazo[1,2-a]pyridin-3-yl)amino)benzoic acid] | 32.9 ± 2.7 | exhibit TDP1 degrading activity | 23.5 ± 3.2 | 1 | exhibit TDP2 degrading activity | exhibit TOP1 degrading activity | exhibit synergy with camptothecin |  |  |  |  |  |
| O=C(O)c1ccc(Nc2c(-c3ccc(-c4ccccc4)cc3)nc3ccc(C(=O)O)cn23)cc1 [Compound 8n, 2-([1,1′-Biphenyl]-4-yl)-3-((4-carboxyphenyl)amino)imidazo[1,2-a]pyridine-6-carboxylic acid] |  |  |  |  |  |  | exhibit synergy with camptothecin | > 100 | 2.94 ± 0.47 | 1.5 | 11.3 | IC50 (TDP1 [3]; Table 1, imidazo[1,2-a]pyridin-3-amines, read-out: IC50): 1.5 µM; TDP1 Selectivity (TDP1 [3]; ratio of IC50 values of TDP1/TDP2): >34; IC50 [6]: > 100 µM |
| N#Cc1ccc(-c2ccc(Cn3cc(-c4ccc(-c5nc6cc(-c7ccccc7)ccn6c5Nc5ccc(C(=O)O)cc5)cc4)nn3)cc2)nc1 [XZ718, 4-((2-(4-(1-(4-(5-Cyanopyridin-2-yl)benzyl)-1H-1,2,3-triazol-4-yl)phenyl)-7-phenylimidazo[1,2-a]pyridin-3-yl)amino)benzoic acid] | 25.9 ± 0.4 | exhibit TDP1 degrading activity | 3.1 ± 0.2 | 8 | exhibit TDP2 degrading activity | exhibit TOP1 degrading activity | exhibit synergy with camptothecin |  |  |  |  |  |
| O=C(O)c1ccc(Nc2c(-c3ccccc3)nc3cnccn23)cc1C(=O)O [Compound 10a, 4-((2-Phenylimidazo[1,2-a]pyrazin-3-yl)amino)phthalic acid] |  |  |  |  |  |  |  | > 100 | > 100 | 45.5 | 4 | IC50 (TDP1 [3]; Table 2, imidazo[1,2-a]pyrazin-3-amine core, read-out: IC50): 45.5 µM; Ki (TDP1 [7]; FIG. 1 legend, Lineweaver-Burk analysis, read-out: Inhibitory constant Ki): 110 ± 30.9 µM; Ki (TDP1 [7]; Table 3, constant of inhibition (FIG. 1), read-out: Ki): 110 ± 30.9 µM |
| N#Cc1ccc(-c2ccc(Cn3cc(-c4ccn5c(Nc6ccc(C(=O)O)cc6)c(-c6ccccc6)nc5c4)nn3)cc2)nc1 [XZ722, 4-((7-(1-(4-(5-Cyanopyridin-2-yl)benzyl)-1H-1,2,3-triazol-4-yl)-2-phenylimidazo[1,2-a]pyridin-3-yl)amino)benzoic acid] | 18 ± 1.2 | exhibit TDP1 degrading activity | 5.95 ± 1.25 | 3 | exhibit TDP2 degrading activity | exhibit TOP1 degrading activity |  |  |  |  |  |  |
| N#Cc1ccc(-c2ccc(/C=N/OCc3ccc(-c4nc5cc(-c6ccccc6)ccn5c4Nc4ccc(C(=O)O)cc4)cc3)cc2)nc1 [XZ701, (E)-4-((2-(4-((((4-(5-Cyanopyridin-2-yl)benzylidene)amino)oxy)methyl)phenyl)-7-phenylimidazo[1,2-a]pyridin-3-yl)amino)benzoic acid] |  | exhibit TDP1 degrading activity | 0.38 ± 0.06 |  | exhibit TDP2 degrading activity | exhibit TOP1 degrading activity | exhibit synergy with camptothecin |  |  |  |  | IC50 (TDP2 [1]; Table 7, HPLC-purified oxime leads): 28.1 ± 8.9 µM; selectivity against TDP1 than against TDP2 (TDP1 [3]): 74 fold; FC (fold change) (TDP1 [3]; Table 7, ratio of IC50 TDP2 to TDP1): 74; TDP1 inhibition relative to SMM lead 3 (TDP1 [3]; fold more than SMM lead 3): 10 fold; IC50 (TDP1 [3]; purified oximes and SMM leads, read-out: TDP1 IC50): 0.38 ± 0.06 µM |
